What was measured:
[1] = test system: brain-glioma (CNS-1) tumor; test: Tumor growth in glioma rat model (T1-weighted MRI tumor volumes); type: in vivo, Lewis male rats; conditions: MTX 6 mg/kg IP, EA-HSA 0.5 mg/ml CED where combined
Experimental: Intracranial inoculation of the tumor was performed as follows: a midline scalp incision was carried out under general anesthesia in order to locate the bregma. A burr hole (1 mm) was drilled on the right side, 3 mm anterior and 2 mm lateral to the bregma. A 33-gauge needle attached to a 1,000 μl syringe was placed stereotactically into the striatum to a depth of 5 mm through which a pellet of 2×10^5 CNS-1 rat glioma cells precipitated in 10 μl PBS buffer was infused into the striatum. The infusion was performed with a BASI syringe pump at a rate of 2 μl/min over a period of 5 min. The burr hole was sealed with bone wax to avoid the tumors from growing out of the skull. The intracranial inoculation of the tumor is designated Day-4 in Table 2.
EA-HSA was administered by CED into the rat brains under full anesthesia. For CED, a midline scalp incision was made under anesthesia to identify the bregma. Then, a burr hole (1 mm) was made in the right region of the skull, 3 mm anterior and 2 mm lateral to the bregma. […]
The volume (in mm^3) of BBB disruption and the increase in tumor volume were calculated from T1-weighted MR images. […] The number of pixels in the ROIs was then counted and multiplied by the volume of a single pixel (voxel). Tumor growth rates were calculated by dividing the tumor volumes at days 2 and 7 post treatment with the baseline tumor volumes (measured at day 0).

[2] = rat, in vivo, ip, 6 mg/kg
Experimental: Additionally, MTX was administered intraperitoneally to naïve rats (n=26) at a dosage of 6 mg/kg body weight on days 0, 2 and 4. […] The combined administration, MTX even at three times of its maximal tolerated dose, with folinic acid prevented MTX toxicity.

[3] = test system: intracranial CNS-1 glioma tumors; test: Survival of glioma-bearing rats (Kaplan-Meier); type: in vivo, Lewis male rats; conditions: rats bearing intracranial CNS-1 glioma; monitored up to 60 days
Experimental: The three rats groups were monitored for survival. Rats were monitored daily and sacrificed when lost>20% of body weight and/or were unable to eat or drink. Rats were monitored up to 60 days after the tumor cell implantation. The Kaplan-Meier survival curves were analyzed according to the Wilcoxon test.

## CN(Cc1cnc2nc(N)nc(N)c2n1)c1ccc(C(=O)N[C@@H](CCC(=O)O)C(=O)O)cc1 [MTX, Methotrexate]
[1]; day 2 post treatment
  tumor volume normalized to day 0 (tumor growth rate): 2.2±0.4
[1]; day 7 post treatment
  tumor volume normalized to day 0 (tumor growth rate): 2.2±0.4
[2]
  toxicity of MTX regimen: symptomatic toxicity
[3]
  median survival time: 12 days

From patent publication US20170247429A1, “BLOOD-BRAIN BARRIER DISRUPTING AGENTS AND USES THEREOF” (TEL HASHOMER MEDICAL RESEARCH INFRASTRUCTURE AND SERVICES …, priority 2014, published 2017)
